# In paper PMC8682738, “Constrained peptides mimic a viral suppressor of RNA silencing” (Nucleic Acids Research, 2021):
# Several values for one entry are separate records, joined by “and”; a condition that tells them apart may be missing. Equal values may be shown once. Positions of bridges follow the written chain, without caps; N, C: chain ends. Non-standard residues stand in square brackets, D forms with d. Residues, ends and D or L forms follow the SMILES beside them. *: point of attachment. FITC = O=C1OC2(c3ccc(O)cc3Oc3cc(O)ccc32)c2ccc(NC(=S)*)cc21; R8 = C=CCCCCCC[C@@](C)(N)C(=O)O; S5 = C=CCCC[C@](C)(N)C(=O)O; AEEA = NCCOCCOCC(=O)O
# How the values were obtained:
# proteinase K = proteinase K (Parengyodontium album, UniProt P06873); test: Protease stability assay; assay type: in vitro ADME; settings: for Half-life (t1/2): proteinase K 10 μg·ml^−1, fluorescein-labeled peptide 50 μM, 10 mM Tris pH 8.0, 150 mM NaCl, room temperature, HPLC absorbance 210 nm, exponential decay fit
# Chain of proteinase K (P06873 106-384): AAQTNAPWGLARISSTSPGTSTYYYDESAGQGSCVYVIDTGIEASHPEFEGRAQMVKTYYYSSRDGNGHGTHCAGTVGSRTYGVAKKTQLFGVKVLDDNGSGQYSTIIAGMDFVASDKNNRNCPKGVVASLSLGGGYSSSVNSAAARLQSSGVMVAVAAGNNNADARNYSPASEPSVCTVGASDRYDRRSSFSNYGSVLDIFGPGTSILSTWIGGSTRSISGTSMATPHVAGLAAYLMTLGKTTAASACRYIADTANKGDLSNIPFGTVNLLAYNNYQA
# Description: Protease stability assays were performed in analogy to a previously published protocol ([47]). Stocks of fluorescein-labeled peptides were prepared to a concentration of 55.5 μM in assay buffer (10 mM Tris, pH 8.0, 150 mM NaCl) and separately stocks of proteinase K also in assay buffer (c = 100 μg·ml^−1). To begin each experiment, peptide and proteinase K stocks were mixed (final concentrations: c = 10 μg·ml^−1 proteinase K, c = 50 μM fluorescein-labeled peptide; final volume = 500 μl) and incubated at room temperature. At each time point, 50 μl of the reaction mixture was quenched by adding 100 μl of TFA/ACN/H2O (v/v/v, 1:49:49) and subsequently incubated for 2 min on ice. Following centrifugation (15 min, 13200 rpm, 4°C), samples (45 μl) were monitored by analytical HPLC using a linear gradient of 10–60% HPLC solvent B over 20 min. The amount of remaining peptide was quantified via absorbance at λ = 210 nm (intact peptide (%)) and plotted against time (t) (h). Half-life (t1/2) was calculated by fitting the data to an exponential decay using the software Prism 5.0 (GraphPad).
# ds pal-RNA = test: EMSA with ds pal-RNA; assay type: binding; settings: fluorescein-labeled peptide 6 μM, RNA 3 μM, 10% native PAGE, 4°C
# Description: (§1) Electrophoretic mobility shift assays (EMSAs) were performed using a Bio-Rad Mini-Protean gel system paired with a direct current (DC) power source (PowerPac™ HC, Bio-Rad). Typically, 6 μl solutions containing ds RNA (c = 3 μM) and fluorescein-labeled peptide (c = 6 μM) were incubated in binding buffer (10 mM Tris (pH 8.0), 0.5 mM EDTA, 12.5% glycerol and 150 mM KCl) at 4°C for 1 h. After incubation, bound RNA was resolved from peptide-free RNA using 10% non-denaturing polyacrylamide gels at 120 V in running buffer (25 mM Tris (pH 8.0), 200 mM glycine, 20 mM NaCl) at 4°C for 1 h. Visualization of fluorescent gel-bound species was conducted using a Typhoon Trio + fluorescence scanner (GE Healthcare Life Sciences). For nucleic acid visualization, gels were stained using 2 μl of SYBR™ gold nucleic acid gel dye (Molecular Probes) in 20 ml of TAE buffer (40 mM Tris, 1 mM EDTA, 20 mM acetic acid) for 45 min at RT before being visualized using a FluorChem™ gel documentation system (Alpha Innotech). To assess B3 binding to different ds RNA sequences (Supplementary Figure S20), 6 μl solutions containing hairpin RNA (c = 1 μM) and fluorescein-labeled B3 (c = 2 μM) were incubated in binding buffer (TAE and 10% glycerol) at RT for 1 h, and then resolved using 15% non-denaturing polyacrylamide gels (acrylamide/bis-acrylamide (19:1) in TAE) at 150 V in running buffer (TAE) at 4°C for 1.5 h. Visualization of fluorescent gel-bound species was conducted using a Bio-Rad ChemiDoc (Bio-Rad). Subsequently, gels were stained with SYBR™ gold nucleic acid gel dye (Invitrogen) as described above and visualized using the same imaging system. To assess B3 binding to pre–miR-21 (Supplementary Figure S24), the RNA was prepared at a fixed concentration (c = 1 μM) and incubated with varying concentrations of fluorescein-labeled B3 (c = 0–5 μM) in binding buffer (TAE and 10% glycerol) at RT for 1 h. After incubation, bound nucleic acid complexes were resolved using 15% non-denaturing polyacrylamide gels (acrylamide/bis-acrylamide (19:1) in TAE) at 150 V in running buffer (TAE) at 4°C for 1.5 h, followed by visualization and staining with SYBR™ gold nucleic acid gel dye (Invitrogen).
# [1] = CD spectroscopy, secondary structure content; assay type: physicochemical; settings: fluorescein-labeled peptide 75 μM, 10 mM sodium phosphate pH 7.4, CDNN/PEPFIT; for Helix (α-helicity): unbound
# Description: Spectra of fluorescein-labeled peptides were recorded with a J-715 circular dichroism spectrometer (Jasco) using a stoppered quartz cuvette (1 mm; Hellma). Peptide samples (c = 75 μM) were prepared in buffer: 10 mM disodium hydrogen phosphate, pH 7.4. For each sample, 10 CD spectra were measured between λ = 190 and 260 nm with continuous scan mode (10 mdeg sensitivity, 1.0 nm resolution, 1.0 nm bandwidth, 2 s integration time, 50 nm/min scan rate). Obtained spectra were averaged, then subtracted from a reference buffer spectrum and smoothed using a fast Fourier transform filter (FFT filter). The mean residue ellipticity (Θ) (deg·cm^2·dmol^−1·10^4) was calculated using Formula (2) and plotted against wavelength (λ) (nm). The ratio of secondary structure elements was calculated with CDNN using the PEPFIT set of reference spectra for secondary structure determination ([45],[46]):(2) where [Θ]m = mean molar ellipticity per peptide bond (degree·cm^2·dmol^−1·10^4), Θ = measured ellipticity (degree), d = optical path length (cm), cg = mass concentration (g·l^−1), MRW = mean residue weight, M = molar mass of the peptide (g·mol^−1) and N = number of peptide bonds.
# K562 cells = test: Live cell confocal microscopy; assay type: cell-based, human; settings: fluorescein-labeled peptide 1 μM, 30 min, 37°C
# Description: Non-adherent K562 cells were counted and collected in 1.5 ml Eppendorf tubes at 30 000 cells per tube. After a wash, cells were re-suspended in 200 μl of phenol-red free media containing 5% FCS and fluorescein-labeled peptides (c(peptide) = 1 μM, t = 30 min) in the Eppendorf tubes at 37°C with vertical rotation to avoid cell pelleting. After incubation, cells were washed once with phenol-red free media, re-suspended again in the same media, and transferred into the wells of an 8-chamber μ-slide (Ibidi). Cells were immediately imaged at 37°C with an SP5 Laser Scanning Confocal Microscope (Leica). Fluorescein was excited with an argon ion laser at wavelength of 488 nm and fluorescence was detected in the range 505–530 nm.
# ds miR-21 = test: EMSA with ds miR-21; assay type: binding; settings: peptide 6 μM, ds miR-21 3 μM
# Description: as §1, with “After incubation, bound nucleic acid complexes were resolved using 15% non-denaturing polyacrylamide gels (acrylamide/bis-acrylamide (19:1) in TAE) at 150 V in running buffer (TAE) at 4°C for 1.5 h, followed by visualization and staining with SYBR™ gold nucleic acid gel dye (Invitrogen).” left out
SMILES,Half-life (t1/2) (proteinase K),binding to ds pal-RNA in EMSA (ds pal-RNA),Random coil [1],β-Sheet [1],β-Turn [1],Helix (α-helicity) [1],cell permeability by live cell confocal microscopy (K562 cells),binding to ds miR-21 in EMSA (ds miR-21),"fold increased stability compared to wt33 (proteinase K; proteinase K, fluorescein-labeled peptides)"
"CC(C)C[C@H](NC(=O)[C@]1(C)CCCC=CCCC[C@](C)(NC(=O)[C@H](CCC(=O)O)NC(=O)[C@H](CO)NC(=O)[C@@H]2CCCN2C(=O)[C@H](CO)NC(=O)[C@H](CCCCN)NC(=O)[C@H](Cc2c[nH]cn2)NC(=O)CNC(=O)[C@H](CCCNC(=N)N)NC(=O)[C@]2(C)CCCC=CCCC[C@](C)(NC(=O)[C@H](CCCCN)NC(=O)[C@H](Cc3c[nH]cn3)NC(=O)[C@H](CCCNC(=N)N)NC(=O)[C@H](CCCCN)NC(=O)[C@H](CCCNC(=N)N)NC(=O)[C@H](CCC(N)=O)NC(=O)[C@H](C)NC(=O)[C@H](CCC(N)=O)NC(=O)[C@H](CCCCN)NC(=O)[C@H](CCCCN)NC(=O)COCCOCCNC(=S)Nc3ccc4c(c3)C(=O)OC43c4ccc(O)cc4Oc4cc(O)ccc43)C(=O)N[C@@H](CC(N)=O)C(=O)N[C@@H](CCCNC(=N)N)C(=O)N[C@@H](CCCCN)C(=O)N2)C(=O)N[C@@H](CCCNC(=N)N)C(=O)N[C@@H](CCCNC(=N)N)C(=O)N[C@@H](CO)C(=O)N1)C(=O)N[C@@H](Cc1c[nH]c2ccccc12)C(=O)N[C@@H](Cc1c[nH]cn1)C(=O)N[C@@H](C)C(=O)N[C@@H](CCCNC(=N)N)C(N)=O [B3] ({FITC-AEEA}-KKQAQRKRHK[S5]NRK[S5]RGHKSPSE[S5]RRS[S5]LWHAR-NH2; staple 11-15, 24-28)",6.18 h,full disappearance of the ds pal-RNA band,9.3%,2.0%,13.9%,85.0% and 82–85%,confirming their cell permeability,formation of peptide/RNA complexes,
"CC(C)C[C@@H]1NC(=O)[C@@](C)(NC(=O)[C@H](CO)NC(=O)[C@H](CCCNC(=N)N)NC(=O)[C@H](CCCNC(=N)N)NC(=O)[C@H](CCC(N)=O)NC(=O)[C@H](CCC(=O)O)NC(=O)[C@H](CO)NC(=O)[C@@H]2CCCN2C(=O)[C@H](CO)NC(=O)[C@H](CCCCN)NC(=O)[C@H](Cc2c[nH]cn2)NC(=O)CNC(=O)[C@H](CCCNC(=N)N)NC(=O)[C@H](CCC(=O)O)NC(=O)[C@H](CCCCN)NC(=O)[C@H](CCCNC(=N)N)NC(=O)[C@H](CC(N)=O)NC(=O)[C@]2(C)CCCC=CCCCCCC[C@@](C)(NC(=O)[C@H](CCC(N)=O)NC(=O)[C@H](CCCCN)NC(=O)[C@H](CCCCN)NC(=O)COCCOCCNC(=S)Nc3ccc4c(c3)C(=O)OC43c4ccc(O)cc4Oc4cc(O)ccc43)C(=O)N[C@@H](CCC(N)=O)C(=O)N[C@@H](CCCNC(=N)N)C(=O)N[C@@H](CCCCN)C(=O)N[C@@H](CCCNC(=N)N)C(=O)N[C@@H](Cc3c[nH]cn3)C(=O)N[C@@H](CCCCN)C(=O)N2)CCCC=CCCC[C@@](C)(C(=O)N[C@@H](CCCNC(=N)N)C(N)=O)NC(=O)[C@H](Cc2c[nH]cn2)NC(=O)[C@H](Cc2c[nH]c3ccccc23)NC1=O [C1] ({FITC-AEEA}-KKQ[R8]QRKRHK[S5]NRKERGHKSPSEQRRS[S5]LWH[S5]R-NH2; staple 4-11, 28-32)",10.6 h,full disappearance of the ds pal-RNA band,47.0%,0.2%,1.8%,81.5% and 82–85%,confirming their cell permeability,formation of peptide/RNA complexes,265 fold
"CC(C)C[C@@H]1NC(=O)[C@H](CCC(=O)O)NC(=O)[C@H](CO)NC(=O)[C@@](C)(NC(=O)[C@H](CCCNC(=N)N)NC(=O)[C@H](CCC(N)=O)NC(=O)[C@H](CCC(=O)O)NC(=O)[C@H](CO)NC(=O)[C@@H]2CCCN2C(=O)[C@H](CO)NC(=O)[C@H](CCCCN)NC(=O)[C@H](Cc2c[nH]cn2)NC(=O)[C@]2(C)CCCC=CCCCCCC[C@@](C)(NC(=O)[C@H](Cc3c[nH]cn3)NC(=O)[C@H](CCCNC(=N)N)NC(=O)[C@H](CCCCN)NC(=O)[C@H](CCCNC(=N)N)NC(=O)[C@H](CCC(N)=O)NC(=O)[C@H](C)NC(=O)[C@H](CCC(N)=O)NC(=O)[C@H](CCCCN)NC(=O)[C@H](CCCCN)NC(=O)COCCOCCNC(=S)Nc3ccc4c(c3)C(=O)OC43c4ccc(O)cc4Oc4cc(O)ccc43)C(=O)N[C@@H](CC(C)C)C(=O)N[C@@H](CC(N)=O)C(=O)N[C@@H](CCCNC(=N)N)C(=O)N[C@@H](CCCCN)C(=O)N[C@@H](CCC(=O)O)C(=O)N[C@@H](CCCNC(=N)N)C(=O)N2)CCCC=CCCC[C@@](C)(C(=O)N[C@@H](Cc2c[nH]cn2)C(=O)N[C@@H](C)C(=O)N[C@@H](CCCNC(=N)N)C(N)=O)NC1=O [D1] ({FITC-AEEA}-KKQAQRKRH[R8]LNRKER[S5]HKSPSEQR[S5]SEL[S5]HAR-NH2; staple 10-17, 26-30)",4.65 h,does not bind to ds pal-RNA,31.2%,12.0%,9.9%,48.5%,confirming their cell permeability,did not show binding,
